Consider 1 compound from patent US20070072840A1, “POLYMORPHIC FORMS OF QUETIAPINE” (priority 2005, published 2007).

Counter-ions that a name gives are not always drawn.

For data set [1] the following is noted: as compared to any other crystalline form.
For data set [2] the following is noted: result in words, conditions not given.
For data set [3] the following is noted: result in words, conditions not given. This is another data set of the same source.

As to `OCCOCCN1CCN(C2=Nc3ccccc3Sc3ccccc32)CC1` [amorphous quetiapine hydrochloride, Quetiapine Hydrochloride], in data set [1], the solubility in water entry is “more soluble in water”. In addition, in data set [2], the hygroscopicity result is listed as “non-hygroscopic”. The stability entry in data set [3] is reported as “stable”.
